Assay results as given in patent US20250100996A1, “HETEROCYCLOALKYL AND HETEROARYL COMPOUNDS AND PHARMACEUTICAL COMPOSITIONS THAT MODULATE IKZF2” (Plexium, Inc., priority 2021, published 2025).

Columns and labels:
[1] = target: T1, human E3 ligase component cereblon (CRBN) (Homo sapiens, UniProt Q96SW2); experiment: Cereblon (CRBN) target engagement, NanoBRET TE Intracellular E3 Ligase Assay in transfected HEK-293T cells; conditions: read-out: CRBN Binding EC50
T1 construct: host or cells: HEK293T
Procedure: HEK293T cells were harvested ca. 75% confluent with trypsin and plated (500,000 cells/well) in a 6-well tissue culture plate in 2 mL of Dulbecco's Modified Eagle Medium (DMEM)^+10% Fetal Bovine Serum (FBS) and incubated overnight at 37° C.
The NanoLuc-CRBN fusion vector (Nluc-CRBN; Promega) contains the coding region of human E3 ligase component cereblon (CRBN) fused to the C-terminus of the NanoLuc luciferase coding region. A mixture of 10 ng Nluc-CRBN and 990 ng DDB1 Expression Vector (Promega) was added to 125 μL Opti-Minimum Essential Medium (Opti-MEM™; Thermo Fisher) along with […] P3000 reagent (Thermo Fisher) in a 1.5 mL epppendorf tube. This solution was added to Lipofectamine 3000 transfection reagent (5 μL; Thermo Fisher) in Opti-MEM (125 μL), mixed well, and incubated for 15 minutes at room temperature. The transfection mixture was added dropwise to cells and incubated overnight at 37° C., 5% CO2. Following transfection, cells were washed once with PBS, and trypsin (250 μL) was added and incubated 30-45 see to dislodge cells. Complete media (2 mL) was added to resuspend cells to form a single cell suspension. Cells were centrifuged at 320×g for 5 min at room temperature, the supernatant was removed, and the cell pellet resuspended in Opti-MEM (3 mL; wash step repeated ×2). After final resuspension in 5 mL Opti-MEM, cells were counted and resuspended at 200,000 cells/mL in Opti-MEM.
Cereblon target engagement was monitored by Bioluminescence Resonance Energy Transfer (BRET) in transfected HEK-293T cells using the NanoBRET TE Intracellular E3 Ligase Assay (Promega). Briefly, 384-well plates (white opaque plates, Corning 3574, low binding surface) were seeded with transfected HEK-293T cells (38 μL/well). 2 μL of 10 μM CRBN tracer (diluted 1:5 in Tracer Dilution Buffer) was added to each well. Plates were centrifuged at 320×g for 1 min at room temperature. Test compounds were added in a 11-point dilution series (typically 10 μM to 100 pM) using a TECAN D300e Digital Dispenser. Plates were shaken for 2 minutes on a microplate shaker to mix compounds. Plates were centrifuged at 320×g for 1 min at room temperature, and subsequently incubated for 2 hours at 37° C.
After incubation, plates were allowed to cool to room temperature for 15 minutes. 20 μL of 3× Complete NanoBRET™ Nano-Glo® Substrate plus Inhibitor Solution (Promega, 1:166 Substrate and 1:500 dilution of Extracellular NanoLuc® Inhibitor diluted in Opti-MEM) were added to each well. Plates were incubated with shaking at room temperature for 3 minutes covered with foil. Plates were read on a CLARIOstar microplate reader (BMG LabTech), measuring at 450 nm (donor emission) and 610 nm (acceptor emission). The IC50 values were determined by regression to best fit four-parameter logistic curves using GraphPad Prism.

[2] = target: T2, IKZF2 (Helios) (Homo sapiens, UniProt Q9UKS7); experiment: IKZF2 reporter degradation assay (HEK 293T IKZF2-mNeonGreen reporter cell line); type: cell-based; conditions: HEK 293T IKZF2-mNeonGreen reporter, 24 hours incubation
T2 construct: Leu-Asp junction (codons ctcgac before the linker); mScarlet (behind P2A) (C, cleaved yes); expressed in transfected cells
From the text: Polycistronic plasmids were constructed for the mammalian expression of fluorescent reporter fusions of human transcription factors IKZF1 (Ikaros), IKZF2 (Helios), and IKZF3 (Aiolos). The respective protein sequences had their C-terminal end joined to a GGGGS linker repeated three times followed by mNeonGreen, P2A sequence, and mScarlet. The DNA sequences of the open reading frames are as follows:
IKZF1, IKZF2, and IKZF3 constructs were cloned into the UCOE Hygromycin expression vectors (Millipore Sigma). Reporter constructs were transfected using cationic lipid reagents into adherent HEK 293T cells and stable integrants were selected by treatment with 200 μg/mL hygromycin B. Clonal populations were obtained from the population of stable integrants either by limiting dilution or fluorescence activated cell sorting.
The clonal stable cell lines were maintained under constant 200 μg/mL hygromycin B selection while being passaged for use in the degradation assays. […] The fluorescence intensity of the IKZF1/2/3-mNeonGreen (FITC channel) and mScarlet (PE channel) reporters were routinely analyzed by flow cytometry to confirm consistent expression levels between experiments.
The IKZF1/IKZF2/IKZF3 degradation assays were carried out by harvesting the HEK 293T reporter cell lines and resuspending the cells in media formulated for reduced background fluorescence (FluoroBrite; Thermo Fisher). The respective cell lines were seeded at a density of 4000 cells/well into black-walled 384-well optical grade assay tissue culture plates. The cells were incubated overnight at 37° C. to allow for attachment to the assay plate. Dilutions of the compounds were prepared in DMSO from 10 mM compound stocks. The assay plates were treated with appropriate concentrations of the compounds by dispensing the DMSO dilutions in quadruplicate wells with an upper limit of 0.5% final DMSO.
After 24 hours incubation with the compounds, the assay plates were imaged on an ImageXpress Pico microscopy system (cells maintained at 37° C. during imaging) to obtain the fluorescent readouts. The assay plates were imaged in the FITC and Tetramethylrhodamine (TRITC) channels to obtain the mNeonGreen fluorescence intensity (reporter degradation data) and mScarlet fluorescence intensity (for cell segmentation). 293T-IKZF1 and 293T-IKZF3 reporter cell lines were imaged with exposures of 500 milliseconds (ms) for both FITC and TRITC channels, while the 293T-IKZF2 reporter cell line was imaged with exposures of 1000 ms for FITC and 1250 ms for TRITC. The resulting data was analyzed with Cell Reporter Xpress software using the 2-channel cell scoring analysis with a “percent positive” readout. The TRITC channel was selected for the “nuclei” segmentation with a threshold of 20 while the FITC channel was selected for the “Marker 1” segmentation and a threshold of 100 for the IKZF1 and IKZF3 reporter lines. […] The minimum segmentation width was set to 6 micrometers and the maximum segmentation width was set to 15 micrometers for all cell lines. The DC50 calculations were determined by regression to best fit four-parameter logistic curves using GraphPad Prism.

T2 sequence (Q9UKS7 whole entry): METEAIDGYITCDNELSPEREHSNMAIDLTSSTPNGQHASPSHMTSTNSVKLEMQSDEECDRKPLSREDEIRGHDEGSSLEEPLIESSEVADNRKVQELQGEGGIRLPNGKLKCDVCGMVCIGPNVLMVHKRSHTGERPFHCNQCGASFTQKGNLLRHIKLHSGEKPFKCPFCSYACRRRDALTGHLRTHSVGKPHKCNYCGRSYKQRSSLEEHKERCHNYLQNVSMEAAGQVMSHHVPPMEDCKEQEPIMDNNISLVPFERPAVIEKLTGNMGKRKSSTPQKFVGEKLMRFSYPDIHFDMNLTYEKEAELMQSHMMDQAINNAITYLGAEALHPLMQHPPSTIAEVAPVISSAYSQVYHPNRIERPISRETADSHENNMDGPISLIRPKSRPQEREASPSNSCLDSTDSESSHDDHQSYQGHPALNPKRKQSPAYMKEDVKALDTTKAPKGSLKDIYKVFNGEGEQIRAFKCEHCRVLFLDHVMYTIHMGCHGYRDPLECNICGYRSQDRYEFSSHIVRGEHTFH
T2 sequence (Q96SW2 whole entry, further chain): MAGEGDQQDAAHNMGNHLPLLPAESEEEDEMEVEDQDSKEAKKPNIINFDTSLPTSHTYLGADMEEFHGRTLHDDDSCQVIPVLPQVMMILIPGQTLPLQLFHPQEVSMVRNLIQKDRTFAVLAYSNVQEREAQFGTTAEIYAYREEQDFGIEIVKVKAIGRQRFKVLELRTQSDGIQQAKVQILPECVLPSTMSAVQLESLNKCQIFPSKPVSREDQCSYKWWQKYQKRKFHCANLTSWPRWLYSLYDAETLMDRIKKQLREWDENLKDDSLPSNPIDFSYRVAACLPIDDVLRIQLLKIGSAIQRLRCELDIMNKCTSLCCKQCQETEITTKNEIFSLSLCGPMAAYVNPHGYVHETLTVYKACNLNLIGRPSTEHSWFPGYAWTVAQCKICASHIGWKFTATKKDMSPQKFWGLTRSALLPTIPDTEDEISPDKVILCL
T2 sequence (Q16531 whole entry partner): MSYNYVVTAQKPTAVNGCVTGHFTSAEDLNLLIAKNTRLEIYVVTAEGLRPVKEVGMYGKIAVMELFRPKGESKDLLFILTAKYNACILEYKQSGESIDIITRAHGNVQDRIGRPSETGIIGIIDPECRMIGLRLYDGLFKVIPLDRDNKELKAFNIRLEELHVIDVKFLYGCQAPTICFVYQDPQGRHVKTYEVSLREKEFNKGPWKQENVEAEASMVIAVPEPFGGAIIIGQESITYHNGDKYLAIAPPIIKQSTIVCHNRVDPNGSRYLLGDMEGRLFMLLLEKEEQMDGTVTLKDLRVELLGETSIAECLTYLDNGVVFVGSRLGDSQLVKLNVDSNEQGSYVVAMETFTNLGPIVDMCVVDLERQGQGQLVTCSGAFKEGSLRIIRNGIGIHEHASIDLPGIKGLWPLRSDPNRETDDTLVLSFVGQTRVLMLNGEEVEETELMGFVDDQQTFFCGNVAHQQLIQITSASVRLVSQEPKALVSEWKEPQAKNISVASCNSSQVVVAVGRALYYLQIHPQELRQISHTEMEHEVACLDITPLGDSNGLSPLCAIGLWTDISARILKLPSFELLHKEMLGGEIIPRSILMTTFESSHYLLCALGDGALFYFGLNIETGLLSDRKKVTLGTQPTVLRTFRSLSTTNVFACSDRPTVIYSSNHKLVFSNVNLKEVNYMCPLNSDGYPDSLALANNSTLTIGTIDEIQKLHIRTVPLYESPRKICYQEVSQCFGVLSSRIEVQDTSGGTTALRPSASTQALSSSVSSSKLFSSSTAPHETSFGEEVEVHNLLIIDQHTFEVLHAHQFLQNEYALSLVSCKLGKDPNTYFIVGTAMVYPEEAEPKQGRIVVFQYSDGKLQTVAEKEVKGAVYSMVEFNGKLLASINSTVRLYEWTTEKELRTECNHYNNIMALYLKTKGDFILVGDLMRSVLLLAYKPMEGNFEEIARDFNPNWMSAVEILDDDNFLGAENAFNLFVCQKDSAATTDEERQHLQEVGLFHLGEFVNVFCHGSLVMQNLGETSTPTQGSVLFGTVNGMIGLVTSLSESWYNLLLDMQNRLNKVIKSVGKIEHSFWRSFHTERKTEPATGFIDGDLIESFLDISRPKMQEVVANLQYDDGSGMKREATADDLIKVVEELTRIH
T1 sequence (Q96SW2 whole entry): as the sequence (Q96SW2 whole entry, further chain) above
T1 sequence (Q16531 whole entry partner): as the sequence (Q16531 whole entry partner) above

SMILES	EC50 [1]	DC50 [2]
Cc1cnc(C2CN([C@H]3CCCC3Oc3ccc4c(c3)CN(C35CC(C3)C(=O)NC5=O)C4=O)C2)o1 (mixture of isomers) [Compound 144-B, Rac-1-(5-(((cis)-2-(3-(5-methyloxazol-2-yl)azetidin-1-yl)cyclopentyl)oxy)-1-oxoisoindolin-2-yl)-3-azabicyclo[3.1.1]heptane-2,4-dione]	> 10000 nM	
Cc1cnc(C2CN([C@H]3CCCC3Oc3ccc4c(c3)CN(C35CC(C3)C(=O)NC5=O)C4=O)C2)o1 (mixture of isomers) [Compound 145-B, Rac-1-(5-(((trans)-2-(3-(5-methyloxazol-2-yl)azetidin-1-yl)cyclopentyl)oxy)-1-oxoisoindolin-2-y1)-3-azabicyclo[3.1.1]heptane-2,4-dione]	> 10000 nM	
Cc1cnc(C2CN([C@H]3CCCC[C@H]3Oc3ccc4c(c3)CN(C35CC(C3)C(=O)NC5=O)C4=O)C2)o1 (racemic) [Compound 149-B, Rac-1-(5-(((cis)-2-(3-(5-methyloxazol-2-yl)azetidin-1-yl)cyclohexyl)oxy)-1-oxoisoindolin-2-yl)-3-azabicyclo[3.1.1]heptane-2,4-dione]	> 10000 nM	
Cc1cnc(C2CN([C@H]3CCCC[C@@H]3Oc3ccc4c(c3)CN(C35CC(C3)C(=O)NC5=O)C4=O)C2)o1 (racemic) [Compound 150-B, Rac-1-(5-(((trans)-2-(3-(5-methyloxazol-2-yl)azetidin-1-yl)cyclohexyl)oxy)-1-oxoisoindolin-2-yl)-3-azabicyclo[3.1.1]heptane-2,4-dione]	> 10000 nM	
O=C1NC(=O)C2(N3Cc4cc(OC5CCC[C@@H]5N5CC(c6ncc(Cl)cn6)C5)ccc4C3=O)CC1C2 (mixture of isomers) [Compound 156-B, Rac-1-(5-(((cis)-2-(3-(5-chloropyrimidin-2-yl)azetidin-1-yl)cyclopentyl)oxy)-1-oxoisoindolin-2-yl)-3-azabicyclo[3.1.1]heptane-2,4-dione]	> 10000 nM	
O=C1NC(=O)C2(N3Cc4cc(OC5CCC[C@@H]5N5CC(c6ncc(Cl)cn6)C5)ccc4C3=O)CC1C2 (mixture of isomers) [Compound 157-B, Rac-1-(5-(((trans)-2-(3-(5-chloropyrimidin-2-yl)azetidin-1-yl)cyclopentyl)oxy)-1-oxoisoindolin-2-yl)-3-azabicyclo[3.1.1]heptane-2,4-dione]	> 10000 nM	
O=C1NC(=O)C2(N3Cc4cc(O[C@@H]5CCCC[C@@H]5N5CC(c6ccncc6)C5)ccc4C3=O)CC1C2 (racemic) [Compound 159-B, Rac-1-(1-oxo-5-(((cis)-2-(3-(pyridin-4-yl)azetidin-1-yl)cyclohexyl)oxy)isoindolin-2-yl)-3-azabicyclo[3.1.1]heptane-2,4-dione]	> 10000 nM	
O=C1NC(=O)C2(N3Cc4cc(O[C@H]5CCCC[C@@H]5N5CC(c6ccncc6)C5)ccc4C3=O)CC1C2 (racemic) [Compound 160-B, Rac-1-(1-oxo-5-(((trans)-2-(3-(pyridin-4-yl)azetidin-1-yl)cyclohexyl)oxy)isoindolin-2-yl)-3-azabicyclo[3.1.1]heptane-2,4-dione]	> 10000 nM	
O=C1CCC(N2Cc3cc(O[C@@H]4CCCC[C@@H]4N4CC(c5ccncc5Cl)C4)ccc3C2=O)C(=O)N1 (single isomer, unassigned) [Compound 96-B]	30 nM	> 30000 nM
O=C1CCC(N2Cc3cc(O[C@@H]4CCCC[C@@H]4N4CC(c5ccncc5F)C4)ccc3C2=O)C(=O)N1 (single isomer, unassigned) [Compound 104-B]	38 nM	> 30000 nM
O=C1CCC(N2Cc3cc(O[C@H]4CCCC[C@@H]4N4CC(c5ncc(Cl)cn5)C4)ccc3C2=O)C(=O)N1 (single isomer, unassigned) [Compound 110-B]	32 nM	> 30000 nM
O=C1CCC(N2Cc3cc(OC4CCCC4N4CC(c5ncc(F)cn5)C4)ccc3C2=O)C(=O)N1 (stereo not drawn) [Compound 158-B, 3-(5-((2-(3-(5-fluoropyrimidin-2-yl)azetidin-1-yl)cyclopentyl)oxy)-1-oxoisoindolin-2-yl)piperidine-2,6-dione]	88 nM	

Molecules with a lower EC50 [1], results first:

EC50 [1]	DC50 [2]	SMILES
29 nM	> 30000 nM	O=C1CCC(N2Cc3cc(O[C@@H]4CCCC[C@@H]4N4CC(c5ncncc5Cl)C4)ccc3C2=O)C(=O)N1 (single isomer, unassigned) [Compound 94-B]
11 nM	> 30000 nM	O=C1CCC(N2Cc3cc(O[C@H]4CCCC[C@H]4N4CC(c5ccc(Cl)cn5)C4)ccc3C2=O)C(=O)N1 (single isomer, unassigned) [Compound 97-B]
11 nM	> 30000 nM	O=C1CCC(N2Cc3cc(O[C@@H]4CCCC[C@@H]4N4CC(c5ccc(Cl)cn5)C4)ccc3C2=O)C(=O)N1 (single isomer, unassigned) [Compound 101-B]
6 nM	> 30000 nM	O=C1CCC(N2Cc3cc(O[C@@H]4CCCC[C@H]4N4CC(c5ncc(Br)cn5)C4)ccc3C2=O)C(=O)N1 (single isomer, unassigned) [Compound 106-B]
22 nM	> 30000 nM	O=C1CCC(N2Cc3cc(O[C@H]4CCCC[C@@H]4N4CC(c5ncc(Br)cn5)C4)ccc3C2=O)C(=O)N1 (single isomer, unassigned) [Compound 107-B]
9 nM	> 30000 nM	O=C1CCC(N2Cc3cc(O[C@@H]4CCCC[C@H]4N4CC(c5ncc(Cl)cn5)C4)ccc3C2=O)C(=O)N1 (single isomer, unassigned) [Compound 109-B]
20 nM	> 30000 nM	O=C1CCC(N2Cc3cc(O[C@H]4CCCC[C@H]4N4CC(c5cncc(Cl)c5)C4)ccc3C2=O)C(=O)N1 (single isomer, unassigned) [Compound 114-B]
4 nM	> 30000 nM	O=C1CCC(N2Cc3cc(O[C@@H]4CCCC[C@@H]4N4CC(c5ncc(C(F)(F)F)cn5)C4)ccc3C2=O)C(=O)N1 (single isomer, unassigned) [Compound 118-B]
24 nM	> 30000 nM	O=C1CCC(N2Cc3cc(O[C@@H]4CCCC[C@@H]4N4CC(c5ncc(C(F)(F)F)cn5)C4)ccc3C2=O)C(=O)N1 (single isomer, unassigned) [Compound 119-B]
